Four compounds from patent US12552775B2, “Compounds and uses thereof” (Foghorn Therapeutics Inc., priority 2020, dated 2026) can be followed below.

The target in test [1] is T1, HiBit-BRM fusion protein (Homo sapiens, UniProt P51531).
T1 construct: expressed in transfected cells
Kind of test: HiBiT-BRM cell-based degradation assay (Nano-Glo HiBiT Lytic Detection, 24 h). The settings on record: stable HeLa cell line expressing HiBiT-BRM, top dose 30 μM. Summed up: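 HiBiT-tagged BRM levels in a stable HeLa line are measured after one day of compound treatment (up to 30 μM final, duplicate 10-point curves) by adding LgBiT lytic reagent and reading bioluminescence; values are expressed relative to vehicle and a 2 μM degrader control.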
Background: With HiBiT, luminescence reflects the tagged protein that the partner subunit can reach.

Test [2] addresses T2, HiBit-BRG1 fusion protein (Homo sapiens, UniProt P51532).
T2 construct: expressed in transfected cells
The experiment in a line: HiBiT-BRG1 cell-based degradation assay (Nano-Glo HiBiT Lytic Detection, 24 h). To be noted: stable HeLa cell line expressing HiBit-BRG1 and LgBit, top dose 30 μM, read-out: BRG1 HiBit Degradation Maximum (%). Summed up:
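HeLa cells stably expressing HiBiT-BRG1 plus LgBiT were treated with 10-point 3-fold compound dilutions (top 30 μM final) for 24 h. Lytic Nano-Glo HiBiT luminescence was read. % degradation was normalised between DMSO (high control) and 2 μM of a reference BRM/BRG1 degrader (low control).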

Each structure is given as a SMILES string.

T1 sequence (P51531 whole entry, the tested form may be a part): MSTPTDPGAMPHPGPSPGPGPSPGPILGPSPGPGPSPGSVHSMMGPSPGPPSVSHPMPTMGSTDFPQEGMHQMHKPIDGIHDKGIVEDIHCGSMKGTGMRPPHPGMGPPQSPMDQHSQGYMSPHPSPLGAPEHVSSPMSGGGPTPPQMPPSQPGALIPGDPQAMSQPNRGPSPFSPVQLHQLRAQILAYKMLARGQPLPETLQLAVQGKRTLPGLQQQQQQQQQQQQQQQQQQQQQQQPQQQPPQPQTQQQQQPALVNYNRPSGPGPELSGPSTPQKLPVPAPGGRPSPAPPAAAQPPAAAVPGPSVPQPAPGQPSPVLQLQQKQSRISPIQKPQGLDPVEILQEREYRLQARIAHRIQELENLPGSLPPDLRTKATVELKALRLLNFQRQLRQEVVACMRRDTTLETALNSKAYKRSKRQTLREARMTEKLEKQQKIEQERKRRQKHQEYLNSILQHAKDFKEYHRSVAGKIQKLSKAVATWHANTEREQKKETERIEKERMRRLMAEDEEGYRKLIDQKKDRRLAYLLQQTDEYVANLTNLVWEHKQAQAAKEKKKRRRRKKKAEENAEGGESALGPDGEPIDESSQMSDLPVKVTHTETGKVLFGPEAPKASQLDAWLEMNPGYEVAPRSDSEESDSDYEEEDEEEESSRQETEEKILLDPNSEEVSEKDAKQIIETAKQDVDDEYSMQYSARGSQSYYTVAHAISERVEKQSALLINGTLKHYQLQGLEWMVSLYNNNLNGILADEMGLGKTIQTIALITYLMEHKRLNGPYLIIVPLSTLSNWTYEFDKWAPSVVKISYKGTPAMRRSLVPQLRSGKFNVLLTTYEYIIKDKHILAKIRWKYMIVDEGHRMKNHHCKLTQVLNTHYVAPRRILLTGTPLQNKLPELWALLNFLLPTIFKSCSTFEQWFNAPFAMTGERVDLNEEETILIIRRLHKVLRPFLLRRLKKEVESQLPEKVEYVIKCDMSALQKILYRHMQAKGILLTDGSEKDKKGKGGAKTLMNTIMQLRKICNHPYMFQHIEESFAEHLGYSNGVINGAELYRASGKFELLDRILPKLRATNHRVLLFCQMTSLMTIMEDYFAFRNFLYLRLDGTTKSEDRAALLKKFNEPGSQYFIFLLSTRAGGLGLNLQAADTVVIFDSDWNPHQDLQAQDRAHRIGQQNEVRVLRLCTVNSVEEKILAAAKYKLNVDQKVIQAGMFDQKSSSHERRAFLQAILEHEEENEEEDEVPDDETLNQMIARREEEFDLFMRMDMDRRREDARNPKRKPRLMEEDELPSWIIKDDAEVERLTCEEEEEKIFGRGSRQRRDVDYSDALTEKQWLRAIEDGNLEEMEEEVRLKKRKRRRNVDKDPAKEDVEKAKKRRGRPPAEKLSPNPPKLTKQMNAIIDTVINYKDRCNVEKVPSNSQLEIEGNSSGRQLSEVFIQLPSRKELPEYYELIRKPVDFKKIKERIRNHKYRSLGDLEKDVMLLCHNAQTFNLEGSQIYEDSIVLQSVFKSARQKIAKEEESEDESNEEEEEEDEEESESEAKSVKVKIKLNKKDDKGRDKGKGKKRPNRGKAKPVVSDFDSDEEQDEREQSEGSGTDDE
T2 sequence (P51532 whole entry, the tested form may be a part): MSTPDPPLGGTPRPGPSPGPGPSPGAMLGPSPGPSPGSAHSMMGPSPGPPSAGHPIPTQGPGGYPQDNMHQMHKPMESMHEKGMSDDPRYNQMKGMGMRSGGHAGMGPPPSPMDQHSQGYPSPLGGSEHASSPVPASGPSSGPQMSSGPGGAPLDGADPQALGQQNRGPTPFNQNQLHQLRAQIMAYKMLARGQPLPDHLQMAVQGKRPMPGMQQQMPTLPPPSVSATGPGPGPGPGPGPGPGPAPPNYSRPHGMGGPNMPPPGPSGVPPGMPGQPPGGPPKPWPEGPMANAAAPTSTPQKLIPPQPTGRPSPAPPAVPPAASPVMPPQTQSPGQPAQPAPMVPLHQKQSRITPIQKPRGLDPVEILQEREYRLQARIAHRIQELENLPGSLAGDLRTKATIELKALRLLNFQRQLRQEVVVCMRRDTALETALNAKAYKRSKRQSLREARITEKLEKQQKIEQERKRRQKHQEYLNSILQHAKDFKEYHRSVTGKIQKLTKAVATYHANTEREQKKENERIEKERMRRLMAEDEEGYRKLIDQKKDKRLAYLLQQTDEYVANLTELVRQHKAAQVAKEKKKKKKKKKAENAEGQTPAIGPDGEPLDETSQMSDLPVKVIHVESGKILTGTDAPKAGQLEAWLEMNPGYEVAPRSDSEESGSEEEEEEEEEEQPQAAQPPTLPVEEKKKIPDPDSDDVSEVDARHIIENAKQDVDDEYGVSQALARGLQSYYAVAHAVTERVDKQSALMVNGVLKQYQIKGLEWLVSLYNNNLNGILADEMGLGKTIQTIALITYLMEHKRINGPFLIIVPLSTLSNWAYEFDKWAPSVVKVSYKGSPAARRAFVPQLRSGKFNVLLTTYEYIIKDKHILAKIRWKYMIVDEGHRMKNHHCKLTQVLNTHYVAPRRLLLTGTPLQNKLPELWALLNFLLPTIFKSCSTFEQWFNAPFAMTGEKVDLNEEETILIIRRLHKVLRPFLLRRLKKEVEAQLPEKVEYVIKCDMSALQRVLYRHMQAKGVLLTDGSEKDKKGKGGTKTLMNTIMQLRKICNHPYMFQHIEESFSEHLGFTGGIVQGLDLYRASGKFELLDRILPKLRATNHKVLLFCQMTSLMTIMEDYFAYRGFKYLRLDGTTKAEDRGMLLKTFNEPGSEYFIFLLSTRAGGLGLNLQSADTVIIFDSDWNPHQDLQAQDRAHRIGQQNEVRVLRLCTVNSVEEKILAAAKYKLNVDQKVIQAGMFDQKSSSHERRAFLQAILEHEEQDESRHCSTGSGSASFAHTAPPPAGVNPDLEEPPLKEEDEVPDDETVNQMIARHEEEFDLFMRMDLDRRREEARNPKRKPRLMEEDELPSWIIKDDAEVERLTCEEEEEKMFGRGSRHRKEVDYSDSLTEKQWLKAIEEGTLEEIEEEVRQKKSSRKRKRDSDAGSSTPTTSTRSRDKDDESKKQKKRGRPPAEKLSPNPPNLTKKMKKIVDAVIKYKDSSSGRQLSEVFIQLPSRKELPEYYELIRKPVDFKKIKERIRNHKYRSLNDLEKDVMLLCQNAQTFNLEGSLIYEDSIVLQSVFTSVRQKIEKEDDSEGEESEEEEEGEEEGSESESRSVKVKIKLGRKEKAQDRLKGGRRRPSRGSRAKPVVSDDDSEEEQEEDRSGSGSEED

Turning to `Nc1nnc(-c2ccccc2O)cc1OCC12CC(C(=O)N3CCC(CCCCN4CCN(c5ccc6c(c5)C(=O)N(C5CCC(=O)NC5=O)C6=O)CC4)CC3)(C1)C2` (centres unmarked) [Compound 95, 5-(4-(4-(1-(3-(((3-amino-6-(2-hydroxyphenyl)pyridazin-4-yl)oxy)methyl)bicyclo[1.1.1]pentane-1-carbonyl)piperidin-4-yl)butyl)piperazin-1-yl)-2-(2,6-dioxopiperidin-3-yl)isoindoline-1,3-dione; formic acid], the “BRM HiBit Degradation Maximum (%)” value in test [1] was “B (“B” indicates maximum degradation ≥ 50%)”. Also, the Dmax in test [2] is over 50%.
In the case of `Nc1nnc(-c2ccccc2O)cc1OCCC12CC(NC(=O)CCOCCOCCNc3ccc4c(c3)C(=O)N(C3CCC(=O)NC3=O)C4=O)(C1)C2` (centres unmarked) [Compound 22, N-[3-(2-[[3-amino-6-(2-hydroxyphenyl)pyridazin-4-yl]oxy]ethyl)bicyclo[1.1.1]pentan-1-yl]-3-[2-(2-[[2-(2,6-dioxopiperidin-3-yl)-1,3-dioxoisoindol-5-yl]amino]ethoxy)ethoxy]propanamide], the “BRM HiBit Degradation Maximum (%)” value in test [1] is on record as “C (“C” indicates maximum degradation < 50%)”. Further, the Dmax in test [2] was under 50%.
With `Nc1nnc(-c2ccccc2O)cc1OCCC12CC(NC(=O)CCOCCOCCOc3ccc4c(c3)C(=O)N(C3CCC(=O)NC3=O)C4=O)(C1)C2` (centres unmarked) [Compound 31, N-(3-(2-((3-amino-6-(2-hydroxyphenyl)pyridazin-4-yl)oxy)ethyl)bicyclo[1.1.1]pentan-1-yl)-3-(2-(2-((2-(2,6-dioxopiperidin-3-yl)-1,3-dioxoisoindolin-5-yl)oxy)ethoxy)ethoxy)propanamide], in test [1], the “BRM HiBit Degradation Maximum (%)” value is “C (“C” indicates maximum degradation < 50%)”. In addition, the Dmax in test [2] is under 50%.
The matching figures for `Nc1nnc(-c2ccccc2O)cc1OCC12CC(C(=O)N3CCN(CCCCCOc4ccc5c(c4)C(=O)N(C4CCC(=O)NC4=O)C5=O)CC3)(C1)C2` (centres unmarked) [Compound 99, 5-((5-(4-(3-(((3-amino-6-(2-hydroxyphenyl)pyridazin-4-yl)oxy)methyl)bicyclo[1.1.1]pentane-1-carbonyl)piperazin-1-yl)pentyl)oxy)-2-(2,6-dioxopiperidin-3-yl)isoindoline-1,3-dione; formic acid]: “C (“C” indicates maximum degradation < 50%)” and under 50%.
